Publication PMC6273270, “Flavonoid Interaction with a Chitinase from Grape Berry Skin: Protein Identification and Modulation of the Enzymatic Activity” (Molecules, 2016)

System: T1, chitinase from S. griseus
T1 construct: gene chiC; commercial native preparation (Sigma Aldrich), low purity, antibody-reactive band about 23 kDa; authors ascribe it to family 19 chitinase C
Assay: fluorimetric release of 4-methylumbelliferone, Michaelis-Menten fit
Type: biochemical, Streptomyces griseus
Conditions: McIlvain's buffer, pH 5.5, 37 °C, 1 h; no flavonoid (control of the quercetin series); apparent; commercial low-purity enzyme
Text: fluorimetric release of 4-methylumbelliferone, Michaelis-Menten fit on chitinase from S. griseus

Km: 35.4 ± 4.18 µM
Structure (SMILES): CC(=O)N[C@H]1[C@H](Oc2ccc3c(C)cc(=O)oc3c2)O[C@H](CO)[C@@H](O[C@@H]2O[C@H](CO)[C@@H](O[C@@H]3O[C@H](CO)[C@@H](O)[C@H](O)[C@H]3NC(C)=O)[C@H](O)[C@H]2NC(C)=O)[C@@H]1O [4-methylumbelliferyl β-d-N,N′,N′-tri-acetyl-chitotrioside]
